From article PMC11882969 (Nature Communications, 2025) come the findings set out here.

One data set addresses hCB1 (Homo sapiens, UniProt P21554). As to the kind of experiment: GloSensor cAMP accumulation assay. Type of data set: cell-based. (cAMP levels reflect the balance of adenylyl cyclase and phosphodiesterase activity.)
Data set [1] concerns the target panel of 320 non-olfactory GPCRs (Homo sapiens, UniProt O14842). Type of data set: cell-based.
Data set [2] deals with panel of 320 non-olfactory GPCRs (Homo sapiens, UniProt O14843). In kind it is cell-based.
In data set [3] the target is panel of 320 non-olfactory GPCRs (Homo sapiens, UniProt P29371). Type of data set: cell-based.
The target in data set [4] is panel of 320 non-olfactory GPCRs (Homo sapiens, UniProt P41180). Type of data set: cell-based.
The target in data set [5] is panel of 320 non-olfactory GPCRs (Homo sapiens, UniProt P49682). Type of data set: cell-based.
Data set [6] concerns the target panel of 320 non-olfactory GPCRs (Homo sapiens, UniProt Q7Z601). In kind it is cell-based.
In data set [7] the target is panel of 320 non-olfactory GPCRs (Homo sapiens, UniProt Q8IZF7). Type of data set: cell-based.
Data set [8] concerns the target panel of 320 non-olfactory GPCRs (Homo sapiens, UniProt Q96P69). Type of data set: cell-based.
Data set [9] has as its target panel of 320 non-olfactory GPCRs (Homo sapiens, UniProt Q99500). Type of data set: cell-based.
For data set [10], the target named is panel of 320 non-olfactory GPCRs (Homo sapiens, UniProt Q9UPC5). Type of data set: cell-based.
Data set [11] deals with mice. The experiment in a line: Hot plate, 52 °C. Particulars: for Jump / Paw lick / Paw shake / Paw withdrawal: individual animals, FigS11b. In kind it is in vivo, mouse.
Data set [12] relates to mice. The experiment in a line: Conditioned place preference. Type of data set: in vivo, mouse. The method, then:
Briefly, mice were first habituated to the test apparatus, twice, and their preference for each chamber recorded for 30 min (Pretest). Two conditioning days followed in which mice received the vehicle control or the compound, and 30 min later restricted for 30 min in the preferred or non-preferred chamber, respectively. On day 5 (Test day), mice were allowed to roam freely between the 3 chambers of the apparatus and their preference for each chamber recorded for 30 min. To calculate the CPP score, we subtracted the time spent in each chamber of the box on the Pretest day from that of the Test day (CPP score = Test - Pretest).

For data set [13] the following is noted: mouse plasma, 1.0 µM.
Description: Compounds were added to one chamber and the same volume of PBS buffer pH 7.4 to the other chamber. A standard solution was created by mixing an aliquot of spiked plasma with blank buffer without dialysis. […] The stability samples were immediately diluted with acetonitrile and stored at 4 °C until LC-MS/MS analysis. All samples were diluted 5-fold with 90% acetonitrile with internal standard with subsequent plasma proteins sedimentation by centrifuging at 5,796 g for 5 min. Supernatants were analyzed using HPLC system coupled with tandem mass spectrometer. The percentage of plasma protein-bound compound, recovery and stability were calculated using following equations:7 ProteinBinding=1−arearatioinbuffer/arearatioinplasma×100 8 Recovery=arearatioinbuffer+arearatioinplasma/arearatioinstabilitysample×100 9 Stability=arearatioinrecoverysample/arearatioinstabilitysample×100
For the next data set, the system named is P-gp (human MDR1). As to the kind of experiment: in vitro. Particulars: dog, MDCK-MDR1, pH 7.4.
Data set [14] can be described thus: Pharmacokinetics: plasma, brain, CSF. The settings on record: for concentration at 1 min / concentration at 5 min / concentration at 15 min / concentration at 30 min / concentration at 60 min / concentration at 120 min / concentration at 240 min / concentration at 360 min / concentration at 480 min: intraperitoneal.
[15] abbreviates: male, CD-1, mouse, CSF, 0.2 mg/kg.
The mark [16] stands for this setting: male, CD-1, mouse, brain, 0.2 mg/kg.
Setting [17] is: male, CD-1, mouse, plasma, 0.2 mg/kg.
Setting [18] is: male, CD-1, mouse, plasma, ip, 0.2 mg/kg.

Where “and” joins values, the source holds several entries; their conditions need not be identical. Equal entries are not always repeated. Entries after “also recorded” stand apart in the source; their conditions may differ.

For orientation: EC50 means the concentration at which the effect is half-maximal. What is called Emax is the size of the effect at its maximum, as opposed to the concentration needed. One may read the efflux ratio as the permeability from basolateral to apical divided by that in the opposite direction, in the common usage. A word on the half-life: it is the time needed for the level to fall by half in the phase considered. Read a low half-life as fast loss. What is called AUC(0-inf) is total exposure, with the tail of the curve extrapolated. A higher AUC(0-inf) goes with more exposure. What is called Cmax is the peak of the concentration-time curve.

Sequence of hCB1 (P21554 whole entry): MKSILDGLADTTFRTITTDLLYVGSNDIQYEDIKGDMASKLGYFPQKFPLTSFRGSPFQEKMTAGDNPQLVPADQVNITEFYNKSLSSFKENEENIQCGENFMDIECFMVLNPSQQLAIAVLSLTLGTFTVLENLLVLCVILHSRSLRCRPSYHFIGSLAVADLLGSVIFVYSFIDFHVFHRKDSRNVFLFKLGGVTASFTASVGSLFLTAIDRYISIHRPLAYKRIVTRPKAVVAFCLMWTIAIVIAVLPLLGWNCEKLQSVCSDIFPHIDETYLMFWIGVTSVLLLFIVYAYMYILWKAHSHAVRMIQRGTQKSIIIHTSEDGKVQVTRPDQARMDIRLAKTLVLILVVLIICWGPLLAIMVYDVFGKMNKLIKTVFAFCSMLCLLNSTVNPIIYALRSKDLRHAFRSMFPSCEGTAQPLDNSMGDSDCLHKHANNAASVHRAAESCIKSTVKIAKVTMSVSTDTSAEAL
Sequence of panel of 320 non-olfactory GPCRs (Homo sapiens, UniProt P29371) (P29371 whole entry): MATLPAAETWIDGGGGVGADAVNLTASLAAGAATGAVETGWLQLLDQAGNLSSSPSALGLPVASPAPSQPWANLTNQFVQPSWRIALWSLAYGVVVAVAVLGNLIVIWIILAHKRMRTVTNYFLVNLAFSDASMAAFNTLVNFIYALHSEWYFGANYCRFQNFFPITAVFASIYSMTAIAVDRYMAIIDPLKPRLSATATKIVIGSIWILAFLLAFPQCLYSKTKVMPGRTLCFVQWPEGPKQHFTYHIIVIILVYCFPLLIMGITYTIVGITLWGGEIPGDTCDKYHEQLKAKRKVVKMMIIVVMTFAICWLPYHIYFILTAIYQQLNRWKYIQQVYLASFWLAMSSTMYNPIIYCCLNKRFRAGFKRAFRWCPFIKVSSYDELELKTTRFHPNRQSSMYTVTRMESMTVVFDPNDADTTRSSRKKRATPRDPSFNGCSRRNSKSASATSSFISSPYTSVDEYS
Sequence of panel of 320 non-olfactory GPCRs (Homo sapiens, UniProt Q99500) (Q99500 whole entry): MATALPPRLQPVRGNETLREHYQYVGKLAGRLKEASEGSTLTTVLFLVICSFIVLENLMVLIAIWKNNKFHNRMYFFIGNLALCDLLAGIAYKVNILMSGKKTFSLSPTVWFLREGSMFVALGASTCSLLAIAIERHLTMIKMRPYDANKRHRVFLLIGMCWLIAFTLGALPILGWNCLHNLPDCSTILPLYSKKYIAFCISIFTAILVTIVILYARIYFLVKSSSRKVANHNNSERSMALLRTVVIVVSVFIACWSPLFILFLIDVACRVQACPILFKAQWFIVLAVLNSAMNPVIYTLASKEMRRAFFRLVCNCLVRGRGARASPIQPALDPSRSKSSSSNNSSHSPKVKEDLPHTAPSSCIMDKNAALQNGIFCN
Sequence of panel of 320 non-olfactory GPCRs (Homo sapiens, UniProt O14842) (O14842 whole entry): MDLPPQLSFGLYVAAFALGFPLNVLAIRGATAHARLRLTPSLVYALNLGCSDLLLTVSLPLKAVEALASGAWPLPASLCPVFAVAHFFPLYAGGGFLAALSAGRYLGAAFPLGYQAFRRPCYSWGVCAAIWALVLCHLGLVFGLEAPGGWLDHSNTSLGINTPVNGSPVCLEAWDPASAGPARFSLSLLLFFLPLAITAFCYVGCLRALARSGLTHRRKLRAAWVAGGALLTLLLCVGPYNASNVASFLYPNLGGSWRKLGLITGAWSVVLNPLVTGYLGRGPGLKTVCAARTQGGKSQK
Sequence of panel of 320 non-olfactory GPCRs (Homo sapiens, UniProt Q8IZF7) (Q8IZF7 whole entry): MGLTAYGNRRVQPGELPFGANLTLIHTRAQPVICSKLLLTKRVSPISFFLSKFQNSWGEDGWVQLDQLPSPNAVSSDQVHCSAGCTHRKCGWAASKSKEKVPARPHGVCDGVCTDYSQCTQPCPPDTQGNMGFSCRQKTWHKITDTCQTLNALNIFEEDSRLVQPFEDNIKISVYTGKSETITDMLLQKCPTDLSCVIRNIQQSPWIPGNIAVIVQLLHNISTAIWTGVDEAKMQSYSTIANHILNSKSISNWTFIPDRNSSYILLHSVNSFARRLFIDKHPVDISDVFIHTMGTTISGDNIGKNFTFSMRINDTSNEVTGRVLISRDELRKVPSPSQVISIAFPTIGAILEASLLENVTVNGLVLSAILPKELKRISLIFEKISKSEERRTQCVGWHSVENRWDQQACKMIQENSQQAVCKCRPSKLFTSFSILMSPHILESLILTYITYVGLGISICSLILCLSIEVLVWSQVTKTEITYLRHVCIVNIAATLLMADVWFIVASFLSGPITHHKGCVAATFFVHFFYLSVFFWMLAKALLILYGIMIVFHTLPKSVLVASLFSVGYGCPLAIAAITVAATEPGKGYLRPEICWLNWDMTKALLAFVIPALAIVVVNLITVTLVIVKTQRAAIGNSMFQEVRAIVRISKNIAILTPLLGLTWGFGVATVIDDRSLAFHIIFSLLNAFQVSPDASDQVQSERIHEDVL
Sequence of panel of 320 non-olfactory GPCRs (Homo sapiens, UniProt P49682) (P49682 whole entry): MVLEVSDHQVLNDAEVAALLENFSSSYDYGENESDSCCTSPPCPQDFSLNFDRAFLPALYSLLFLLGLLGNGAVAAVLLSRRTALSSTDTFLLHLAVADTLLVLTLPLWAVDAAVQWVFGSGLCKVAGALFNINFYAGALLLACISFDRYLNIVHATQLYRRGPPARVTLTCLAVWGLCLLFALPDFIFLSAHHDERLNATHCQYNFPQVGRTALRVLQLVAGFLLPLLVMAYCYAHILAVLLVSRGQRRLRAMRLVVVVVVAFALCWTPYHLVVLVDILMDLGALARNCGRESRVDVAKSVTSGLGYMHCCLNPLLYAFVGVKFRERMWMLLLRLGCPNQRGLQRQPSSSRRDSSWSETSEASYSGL
Sequence of panel of 320 non-olfactory GPCRs (Homo sapiens, UniProt Q7Z601) (Q7Z601 whole entry): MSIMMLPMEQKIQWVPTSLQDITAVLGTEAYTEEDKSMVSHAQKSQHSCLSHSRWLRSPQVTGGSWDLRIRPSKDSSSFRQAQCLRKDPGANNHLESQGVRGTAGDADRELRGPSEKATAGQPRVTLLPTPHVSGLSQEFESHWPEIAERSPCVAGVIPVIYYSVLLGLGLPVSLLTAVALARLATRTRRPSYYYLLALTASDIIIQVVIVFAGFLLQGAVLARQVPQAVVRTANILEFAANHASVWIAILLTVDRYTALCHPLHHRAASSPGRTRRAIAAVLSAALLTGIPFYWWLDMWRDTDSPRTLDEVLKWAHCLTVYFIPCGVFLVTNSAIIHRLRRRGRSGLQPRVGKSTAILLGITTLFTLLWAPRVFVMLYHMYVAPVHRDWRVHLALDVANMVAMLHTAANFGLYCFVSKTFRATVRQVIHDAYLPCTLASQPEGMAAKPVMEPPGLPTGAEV
Sequence of panel of 320 non-olfactory GPCRs (Homo sapiens, UniProt Q9UPC5) (Q9UPC5 whole entry): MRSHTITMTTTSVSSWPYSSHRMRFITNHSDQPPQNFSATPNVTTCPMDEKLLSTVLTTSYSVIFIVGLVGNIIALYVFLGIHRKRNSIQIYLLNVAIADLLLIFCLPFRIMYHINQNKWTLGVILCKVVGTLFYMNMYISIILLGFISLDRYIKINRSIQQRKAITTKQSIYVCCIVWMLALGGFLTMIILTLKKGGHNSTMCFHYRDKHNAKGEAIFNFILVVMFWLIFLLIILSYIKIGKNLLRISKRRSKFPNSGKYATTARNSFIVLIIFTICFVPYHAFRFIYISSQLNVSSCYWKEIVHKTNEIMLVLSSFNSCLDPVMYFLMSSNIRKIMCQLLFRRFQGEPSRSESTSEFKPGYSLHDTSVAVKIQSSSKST
Sequence of panel of 320 non-olfactory GPCRs (Homo sapiens, UniProt O14843) (O14843 whole entry): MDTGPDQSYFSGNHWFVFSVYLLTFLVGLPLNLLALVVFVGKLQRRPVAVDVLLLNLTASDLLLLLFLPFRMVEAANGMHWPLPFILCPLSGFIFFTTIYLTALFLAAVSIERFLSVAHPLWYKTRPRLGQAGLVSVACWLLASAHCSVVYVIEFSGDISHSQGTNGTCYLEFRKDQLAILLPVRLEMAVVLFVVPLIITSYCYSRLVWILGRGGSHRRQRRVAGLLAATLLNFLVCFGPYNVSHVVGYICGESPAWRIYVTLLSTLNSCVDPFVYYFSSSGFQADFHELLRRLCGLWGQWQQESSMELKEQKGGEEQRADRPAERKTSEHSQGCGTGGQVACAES
Sequence of panel of 320 non-olfactory GPCRs (Homo sapiens, UniProt Q96P69) (Q96P69 whole entry): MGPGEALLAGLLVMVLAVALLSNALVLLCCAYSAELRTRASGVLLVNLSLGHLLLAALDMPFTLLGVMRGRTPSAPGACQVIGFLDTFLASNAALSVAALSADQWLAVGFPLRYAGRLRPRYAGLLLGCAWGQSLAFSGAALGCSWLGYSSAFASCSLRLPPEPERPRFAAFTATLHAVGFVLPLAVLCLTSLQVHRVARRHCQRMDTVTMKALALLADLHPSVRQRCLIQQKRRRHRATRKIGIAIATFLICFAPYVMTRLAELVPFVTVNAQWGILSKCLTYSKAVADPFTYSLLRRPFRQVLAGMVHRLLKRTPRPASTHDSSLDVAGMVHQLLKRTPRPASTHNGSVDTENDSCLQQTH
Description for hCB1: Briefly, hCB1-expressing cells were transfected with the GloSensor cAMP DNA construct overnight. […] The results were analyzed using GraphPad Prism 9. Each experiment was performed in triplicate and functional IC50 values were determined from the mean of three independent experiments.

`COC(=O)C(NC(=O)c1cc(C)n(-c2cccc(C(F)(F)F)c2)n1)c1cccs1` (stereo not drawn) [‘60154]: at hCB1, the half-maximal effective concentration (EC50) was 25.2 nM, the Emax worked out at 82% and the “Glosensor cAMP pEC50” value was 7.6 [7.4 – 7.8].
As for `COC(=O)[C@@](C)(NC(=O)c1cc(C)n(-c2cccc(C(F)(F)F)c2)n1)c1cccs1` [‘1350], the “Fold of Basal RLU” value in data set [1] is 1.4 and 0.7 and 1.1 and 0.8; in data set [2], 0.6 and 0.8 and 1.1; in data set [3], 1.6 fold and 1.3 fold and 1.4 fold; in data set [4], 0.4 and 0.7 and 0.8; in data set [5] it was 0.5 and 0.4 and 0.6; in data set [6], 1.2 and 0.9 and 1. Moreover, the “Fold of Basal RLU” value in data set [7] was 0.8 and 0.9 and 0.7 and 0.5; in data set [8] it was 0.8 and 1 and 1.1 and 1.4; in data set [9], 0.4 and 0.5 and 0.8; in [10], 0.7 fold and 1 fold and 1.1 fold and 1.4 fold. Further, the Jump in the data set with mice [11] (0.05 mg/kg) is 0 (4×) and 2; in the data set with mice [11] (0.1 mg/kg), 0; in the data set on mice [11] (0.2 mg/kg), 8 and 0 and 34 and 14 (2×). The Paw lick is 0 (3×) and 2 and 12 in the data set on mice [11] (0.05 mg/kg); 2 and 0 (3×) and 8 in the data set with mice [11] (0.1 mg/kg); 0 with mice [11] (0.2 mg/kg). Also, the Paw shake was 20 and 22 and 48 and 24 and 12 in the data set on mice [11] (0.05 mg/kg); 16 and 18 and 6 and 22 and 4 with mice [11] (0.1 mg/kg); 2 (2×) and 4 and 0 (2×) in the data set with mice [11] (0.2 mg/kg). Further, the Paw withdrawal with mice [11] (0.05 mg/kg) was 28 and 42 and 47 and 50 and 14; in the data set with mice [11] (0.1 mg/kg) it was 20 and 30 and 22 and 34 and 14; with mice [11] (0.2 mg/kg), 16 and 22 and 18 (2×) and 12. The “effect of CB2R knockout on analgesia, hot plate” value in the data set with mice [11] (CB2R KO mice) is “did not decrease the analgesic effects”. Also, the “hot plate response normalised to baseline (Figure4b), individual animals” value was 62.7 and 108.4 and 141.6 and 81.1 and 84.7 and 79 and 84.5 and 85.4 and 86.2 and 81.8 in the data set with mice [11] (Dose 0.05 mg/kg); 100.2 and 152.6 and 103.1 and 113.3 and 127.2 and 80.8 and 109.9 and 151.2 and 138.2 and 159.1 in the data set on mice [11] (Dose 0.1 mg/kg); 191.789 and 117.988 and 110.937 and 200.407 and 123.942 with mice [11] (Dose 0.2 mg/kg); 244.124 and 212.316 and 122.062 and 249.608 and 217.8 with mice [11] (Dose 0.5 mg/kg). The “lowest dose with significantly increased hot plate latency” value with mice [11] (i.p., 30 min after injection) is 0.1 mg/kg. In addition, the “Individual animal scores (FigS11e)” value with mice [12] (0.2 mg/kg, test not printed on the sheet) was 289 and 48 and 256 and -101 and 11 and -145 and -65 and -179. Besides, the conditioned place preference result with mice [12] (drug-paired vs vehicle-paired chamber) is reported as “does not induce preference”. For the same molecule, the “Mean % of bound compound” value in [13] was 94%. Besides, in data set [13] (5 h), the Stability was 11%. In the data set with P-gp (human MDR1), the efflux ratio at 90 min, 10 μM is 1.3. Besides, the “brain AUC0→inf” value in [14] (0.2 mg/kg i.p., CD-1 mice) stood at 8180 ng·min/mL. For the same molecule, in data set [14] (0.2 mg/kg i.p., CD-1 mice), the “brain Cmax” value amounted to 44.1 ng/g. For the same molecule, the “level in CSF” value in data set [14] (0.2 mg/kg i.p., CD-1 mice) was “but not CSF compartments; also recorded: below the quantification limit”. In addition, the concentration at 1 min in [14] (setting [15]) turned out to be 0 ng/mL; in [14] (setting [16]), 0 ng/g; in data set [14] (setting [17]), 0 ng/mL. Further, the concentration at 5 min in data set [14] (setting [15]) is 1.2 ng/mL; in data set [14] (setting [16]), 8.24 ng/g; in data set [14] (setting [17]), 6.41 ng/mL. Moreover, the concentration at 15 min in [14] (setting [15]) turned out to be 0 ng/mL; in data set [14] (setting [16]), 41.8 ng/g; in data set [14] (setting [17]), 10.8 ng/mL. For the same molecule, the concentration at 30 min in data set [14] (setting [15]) stood at 0 ng/mL; in data set [14] (setting [16]), 29.5 ng/g; in data set [14] (setting [17]), 5.48 ng/mL. The concentration at 60 min is 0 ng/mL in [14] (setting [15]), 44.1 ng/g in data set [14] (setting [16]) and 7.25 ng/mL in data set [14] (setting [17]). For the same molecule, the concentration at 120 min is 0 ng/mL in data set [14] (setting [15]), 33.1 ng/g in data set [14] (setting [16]) and 6.15 ng/mL in [14] (setting [17]). The concentration at 240 min in [14] (setting [15]) was determined as 0 ng/mL; in data set [14] (setting [16]), 4.35 ng/g; in [14] (setting [17]), 0.376 ng/mL. In addition, the figures for the concentration at 360 min in [14] (setting [15]), in [14] (setting [16]) and in data set [14] (setting [17]) were 0 ng/mL, 8.81 ng/g and 1.1 ng/mL, respectively. Also, the concentration at 480 min is 0.14 ng/mL in data set [14] (setting [15]), 2.87 ng/g in data set [14] (setting [16]) and 0.486 ng/mL in [14] (setting [17]). The half-life in data set [14] (male, CD-1, mouse, brain, ip, 0.2 mg/kg) was determined as 1.87 h; in data set [14] (setting [18]), 1.85 h. The same molecule showed an AUC(0-inf) in data set [14] (setting [18]) of 25.2 ng·h/mL. In [14] (setting [18]), the Cmax was 10.8 ng/mL and 25 nM.
In the case of `COC(=O)C(C)(NC(=O)c1cc(C)n(-c2cccc(C(F)(F)F)c2)n1)c1cccs1` (stereo not drawn) [‘4042], on hCB1, the Emax worked out at 91% and the “Glosensor cAMP pEC50” value was 10.4 [10.3 – 10.5].
